Laboratory results as given in PMC8222254, “Self-assembly of an anion receptor with metal-dependent kinase inhibition and potent in vitro anti-cancer properties” (Nature Communications, 2021).
Values joined by “and” are separate entries in the source; they are usually repeats but may differ in a detail not shown here. Identical values can stand only once. Like-named read-outs stand apart in the source and are kept apart here.

How the values were obtained:
Assay in all cases: Chemosensitivity, 96 h continuous exposure, MTT assay
Assay type in all cases: cell-based, human
[1] = test system: BxPC3; conditions: for IC50 / Selectivity indices relative to ARPE-19, Ratio + anion:no anion / Selectivity indices relative to MCF10A, Ratio + anion:no anion: BXPC3; for Selectivity index (ARPE19): IC50 ARPE-19 / IC50 BXPC3; for Selectivity index (MCF10A): IC50 MCF10A / IC50 BXPC3; for Relative potency (+ anion to no anion), Ratio + anion:no anion: ratio of IC50, BXPC3; for Selectivity indices relative to ARPE-19, Ratio + anion:no anion: ratio of SI (ARPE-19); for Selectivity indices relative to MCF10A, Ratio + anion:no anion: ratio of SI (MCF 10A)
Summary of the method: (§1)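 IC50 is the concentration giving 50% growth reduction, derived from dose-response curves of MTT absorbance at 540 nm. Before dosing, lines were plated at 2 × 10^3 cells/well, GBM1 stem-like cells at 3 × 10^3/well, overnight at 37 °C; compound exposure lasted 96 h without interruption, vehicle 0.2% DMSO.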

[2] = test system: DLD-1; conditions: for IC50 / Selectivity indices relative to ARPE-19, Ratio + anion:no anion / Selectivity indices relative to MCF10A, Ratio + anion:no anion: DLD-1; for Selectivity index (ARPE19): IC50 ARPE-19 / IC50 DLD-1; for Selectivity index (MCF10A): IC50 MCF10A / IC50 DLD-1; for Relative potency (+ anion to no anion), Ratio + anion:no anion: ratio of IC50, DLD-1; for Selectivity indices relative to ARPE-19, Ratio + anion:no anion: ratio of SI (ARPE-19); for Selectivity indices relative to MCF10A, Ratio + anion:no anion: ratio of SI (MCF 10A)
Summary of the method: as §1

[3] = test system: HCT116 p53+/+; conditions: for IC50 / Selectivity indices relative to ARPE-19, Ratio + anion:no anion / Selectivity indices relative to MCF10A, Ratio + anion:no anion: HCT116 p53+/+; for Selectivity index (ARPE19): IC50 ARPE-19 / IC50 HCT116 p53+/+; for Selectivity index (MCF10A): IC50 MCF10A / IC50 HCT116 p53+/+; for Relative potency (+ anion to no anion), Ratio + anion:no anion: ratio of IC50, HCT116 p53+/+; for Selectivity indices relative to ARPE-19, Ratio + anion:no anion: ratio of SI (ARPE-19); for Selectivity indices relative to MCF10A, Ratio + anion:no anion: ratio of SI (MCF 10A)
Summary of the method: as §1

[4] = test system: MCF10A non-cancer cells; conditions: for Relative potency (+ anion to no anion), Ratio + anion:no anion: ratio of IC50, MCF10A
Summary of the method: as §1

[5] = mean of replicates, read-out: Mean IC50
[6] = single replicate, read-out: IC50 values for each replicate
[7] = MCF10A non-cancer, read-out: Mean IC50 values
[8] = MCF10A, mean of replicates, read-out: Mean IC50
[9] = MCF10A, single replicate, read-out: IC50 values for each replicate

| SMILES | IC50 [1, 5] [nM] | IC50 ([1]; read-out: Mean IC50 values) [nM] | Selectivity index (ARPE19) [1] | Selectivity index (MCF10A) [1] | Relative potency (+ anion to no anion), Ratio + anion:no anion [1] | Selectivity indices relative to ARPE-19, Ratio + anion:no anion [1] | Selectivity indices relative to MCF10A, Ratio + anion:no anion [1] | IC50 [2, 5] [nM] | IC50 ([2]; read-out: Mean IC50 values) [nM] | Selectivity index (ARPE19) [2] | Selectivity index (MCF10A) [2] | Relative potency (+ anion to no anion), Ratio + anion:no anion [2] | Selectivity indices relative to ARPE-19, Ratio + anion:no anion [2] | Selectivity indices relative to MCF10A, Ratio + anion:no anion [2] | IC50 [3, 5] [nM] | IC50 ([3]; read-out: Mean IC50 values) [nM] | IC50 [3, 6] | Selectivity index (ARPE19) [3] | Selectivity index (MCF10A) [3] | Relative potency (+ anion to no anion), Ratio + anion:no anion [3] | also measured |
| --- | --- | --- | --- | --- | --- | --- | --- | --- | --- | --- | --- | --- | --- | --- | --- | --- | --- | --- | --- | --- | --- |
| O=P([O-])([O-])Oc1ccccc1.[Cu+2].[Cu+2].[Cu+2].c1ccc(-c2csc(NCCN(CCNc3nc(-c4ccccn4)cs3)CCNc3nc(-c4ccccn4)cs3)n2)nc1.c1ccc(-c2csc(NCCN(CCNc3nc(-c4ccccn4)cs3)CCNc3nc(-c4ccccn4)cs3)n2)nc1 [[L2Cu3(O3POPh)]4+] | 51900 | 39500 | 2.92 | 1.30 | 134.82 | 0.016 | 0.008 | 392 | 392 | 293.98 | 131.32 | 2.97 | 0.737 | 0.359 | 167 | 167 | 170 nM and 167 nM and 189 nM and 142 nM | 690.06 | 308.25 | 0.34 | IC50 [1, 6]: 59300 nM and 58600 nM and 40800 nM and 47600 nM and 53000 nM; Selectivity indices relative to ARPE-19, Ratio + anion:no anion [3]: 6.503; Selectivity indices relative to MCF10A, Ratio + anion:no anion [3]: 3.168; IC50 [4, 7]: 51.5 µM; IC50 [4, 8]: 51.5 µM; IC50 [4, 9]: 60.2 µM and 49 µM and 54.9 µM and 41.9 µM; Relative potency (+ anion to no anion), Ratio + anion:no anion [4]: 1.07 |
| O=P([O-])([O-])[O-].[Cu+2].[Cu+2].[Cu+2].c1ccc(-c2csc(NCCN(CCNc3nc(-c4ccccn4)cs3)CCNc3nc(-c4ccccn4)cs3)n2)nc1.c1ccc(-c2csc(NCCN(CCNc3nc(-c4ccccn4)cs3)CCNc3nc(-c4ccccn4)cs3)n2)nc1 [[L2Cu3(PO4)]3+] | 1680 | 1680 | 97.37 | 29.36 | 5.74 | 0.542 | 0.178 | 637 | 637 | 257.10 | 77.52 | 4.83 | 0.645 | 0.212 | 3390 | 3390 | 5270 nM and 3750 nM and 2150 nM and 2080 nM and 1850 nM | 48.25 | 14.55 | 6.84 | IC50 [1, 6]: 704 nM and 1940 nM and 2090 nM and 2240 nM and 1430 nM; IC50 [2, 6]: 613 nM and 668 nM and 654 nM; Selectivity indices relative to ARPE-19, Ratio + anion:no anion [3]: 0.455; Selectivity indices relative to MCF10A, Ratio + anion:no anion [3]: 0.150; IC50 [4, 7]: 49.4 µM; IC50 [4, 8]: 49.4 µM; IC50 [4, 9]: 46.7 µM and 51 µM and 59.3 µM and 40.6 µM; Relative potency (+ anion to no anion), Ratio + anion:no anion [4]: 1.02 |
| O=S(=O)([O-])[O-].[Cu+2].[Cu+2].[Cu+2].c1ccc(-c2csc(NCCN(CCNc3nc(-c4ccccn4)cs3)CCNc3nc(-c4ccccn4)cs3)n2)nc1.c1ccc(-c2csc(NCCN(CCNc3nc(-c4ccccn4)cs3)CCNc3nc(-c4ccccn4)cs3)n2)nc1 [[L2Cu3(SO4)]4+] | 491 | 491 | 245.03 | 101.29 | 1.68 | 1.364 | 0.615 | 650 | 650 | 185.09 | 76.51 | 4.92 | 0.464 | 0.209 | 668 | 668 | 643 nM and 713 nM and 647 nM | 180.10 | 74.45 | 1.35 | IC50 [1, 6]: 544 nM and 586 nM and 260 nM and 478 nM and 588 nM; Selectivity indices relative to ARPE-19, Ratio + anion:no anion [3]: 1.697; Selectivity indices relative to MCF10A, Ratio + anion:no anion [3]: 0.765; IC50 [4, 7]: 49.7 µM; IC50 [4, 8]: 49.7 µM; IC50 [4, 9]: 53.2 µM and 42.9 µM and 45.1 µM and 57.7 µM; Relative potency (+ anion to no anion), Ratio + anion:no anion [4]: 1.03 |
| O=P(O)(O)Oc1ccccc1.[Zn+2].[Zn+2].[Zn+2].c1ccc(-c2csc(NCCN(CCNc3nc(-c4ccccn4)cs3)CCNc3nc(-c4ccccn4)cs3)n2)nc1.c1ccc(-c2csc(NCCN(CCNc3nc(-c4ccccn4)cs3)CCNc3nc(-c4ccccn4)cs3)n2)nc1 [[L2Zn3(O3POPh)]4+] | 1140 | 1140 | 202.86 | 46.13 | 3.55 | 0.413 | 0.091 | 230 | 230 | 1001.09 | 227.62 | 1.35 | 1.082 | 0.239 | 64 | 64 | 58 nM and 64 nM and 70 nM | 3597.66 | 818.02 | 0.14 | Selectivity indices relative to ARPE-19, Ratio + anion:no anion [3]: 10.661; Selectivity indices relative to MCF10A, Ratio + anion:no anion [3]: 2.358; IC50 [4, 7]: 52.4 µM; IC50 [4, 8]: 52.4 µM; IC50 [4, 9]: 37.9 µM and 56.1 µM and 63.1 µM; Relative potency (+ anion to no anion), Ratio + anion:no anion [4]: 0.32 |
| CC(=O)[O-].CC(=O)[O-].CC(=O)[O-].O=P([O-])([O-])[O-].[Zn+2].[Zn+2].[Zn+2].c1ccc(-c2csc(NCCN(CCNc3nc(-c4ccccn4)cs3)CCNc3nc(-c4ccccn4)cs3)n2)nc1.c1ccc(-c2csc(NCCN(CCNc3nc(-c4ccccn4)cs3)CCNc3nc(-c4ccccn4)cs3)n2)nc1 [[L2Zn3(PO4)]3+] | 728 | 728 | 179.90 | 19.81 | 2.28 | 0.366 | 0.039 | 190 | 190 | 689.32 | 75.91 | 1.12 | 0.745 | 0.080 | 218 | 218 | 218 nM and 227 nM and 209 nM | 600.78 | 66.16 | 0.47 | IC50 [1, 6]: 812 nM and 698 nM and 618 nM and 766 nM; IC50 [2, 6]: 203 nM and 90 nM and 180 nM and 219 nM and 259 nM; Selectivity indices relative to ARPE-19, Ratio + anion:no anion [3]: 1.780; Selectivity indices relative to MCF10A, Ratio + anion:no anion [3]: 0.191; IC50 [4, 7]: 14.4 µM; IC50 [4, 8]: 14.4 µM; IC50 [4, 9]: 11.9 µM and 15 µM and 16.3 µM; Relative potency (+ anion to no anion), Ratio + anion:no anion [4]: 0.09 |
| O=S(=O)(O)O.[Zn+2].[Zn+2].[Zn+2].c1ccc(-c2csc(NCCN(CCNc3nc(-c4ccccn4)cs3)CCNc3nc(-c4ccccn4)cs3)n2)nc1.c1ccc(-c2csc(NCCN(CCNc3nc(-c4ccccn4)cs3)CCNc3nc(-c4ccccn4)cs3)n2)nc1 [[L2Zn3(SO4)]4+] | 599 | 599 | 282.59 | 25.42 | 1.87 | 0.575 | 0.050 | 338 | 338 | 500.80 | 45.05 | 1.99 | 0.541 | 0.047 | 66 | 66 | 63 nM and 74 nM and 62 nM | 2564.70 | 230.73 | 0.14 | IC50 [1, 6]: 668 nM and 428 nM and 705 nM and 728 nM and 465 nM; Selectivity indices relative to ARPE-19, Ratio + anion:no anion [3]: 7.600; Selectivity indices relative to MCF10A, Ratio + anion:no anion [3]: 0.665; IC50 [4, 7]: 15.2 µM; IC50 [4, 8]: 15.2 µM; IC50 [4, 9]: 18.5 µM and 11.3 µM (2×) and 19.7 µM; Relative potency (+ anion to no anion), Ratio + anion:no anion [4]: 0.09 |
